Measurements: ChEMBL document CHEMBL1155237, “Selective inhibitors of the mutant B-Raf pathway: discovery of a potent and orally bioavailable aminoisoquinoline” (J Med Chem, 2009)

Legend:
[1] = Volume of distribution at steady state in CD1 mouse; type: ADME, organism-based; conditions: in vivo, read-out: Vdss
[2] = Volume of distribution at steady state in Sprague-Dawley rat at 2 mg/kg, iv and 5 mg/kg, po; type: ADME, organism-based; conditions: in vivo, read-out: Vdss
[3] = Oral bioavailability in Sprague-Dawley rat at 5 mg/kg; type: ADME, organism-based; conditions: in vivo
[4] = target: Dual specificity mitogen-activated protein kinase kinase 6 (Homo sapiens) (UniProt P52564); assay: Inhibition of MEK6 assessed as enzyme activity at 1 uM relative to untreated control; set-up: scale not given: the % may be the effect or the level left
Sequence of Dual specificity mitogen-activated protein kinase kinase 6 (Homo sapiens) (P52564 whole entry): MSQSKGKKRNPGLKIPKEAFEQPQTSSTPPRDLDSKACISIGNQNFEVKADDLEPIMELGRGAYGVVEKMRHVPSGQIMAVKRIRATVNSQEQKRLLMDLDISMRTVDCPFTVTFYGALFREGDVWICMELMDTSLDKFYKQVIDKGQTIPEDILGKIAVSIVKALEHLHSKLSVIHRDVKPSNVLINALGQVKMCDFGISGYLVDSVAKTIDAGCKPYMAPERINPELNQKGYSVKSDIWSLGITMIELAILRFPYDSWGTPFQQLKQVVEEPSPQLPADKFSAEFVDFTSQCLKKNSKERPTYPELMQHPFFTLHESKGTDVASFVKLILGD

[5] = target: Myosin light chain kinase 2, skeletal/cardiac muscle (Homo sapiens) (UniProt Q9H1R3); assay: Inhibition of MYLK2 assessed as enzyme activity at 1 uM relative to untreated control; set-up: scale not given: the % may be the effect or the level left
Sequence of Myosin light chain kinase 2, skeletal/cardiac muscle (Homo sapiens) (Q9H1R3 whole entry): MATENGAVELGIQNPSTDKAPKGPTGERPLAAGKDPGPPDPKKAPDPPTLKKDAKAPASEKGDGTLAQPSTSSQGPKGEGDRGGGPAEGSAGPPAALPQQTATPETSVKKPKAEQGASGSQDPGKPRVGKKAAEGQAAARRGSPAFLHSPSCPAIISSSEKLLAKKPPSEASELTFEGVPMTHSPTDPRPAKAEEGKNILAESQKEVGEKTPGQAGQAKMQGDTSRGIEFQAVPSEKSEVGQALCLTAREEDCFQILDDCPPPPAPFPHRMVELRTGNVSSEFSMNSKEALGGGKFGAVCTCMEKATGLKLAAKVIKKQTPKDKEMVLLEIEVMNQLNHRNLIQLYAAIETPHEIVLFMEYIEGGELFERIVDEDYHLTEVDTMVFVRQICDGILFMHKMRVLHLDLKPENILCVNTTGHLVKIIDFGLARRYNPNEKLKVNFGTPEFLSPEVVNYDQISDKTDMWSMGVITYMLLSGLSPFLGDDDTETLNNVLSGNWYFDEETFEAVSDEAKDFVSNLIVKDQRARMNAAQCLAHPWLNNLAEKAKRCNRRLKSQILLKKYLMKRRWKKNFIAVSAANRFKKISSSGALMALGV

[6] = target: Myosin-IIIa (Homo sapiens) (UniProt Q8NEV4); assay: Inhibition of MYO3A assessed as enzyme activity at 1 uM relative to untreated control; set-up: scale not given: the % may be the effect or the level left
[7] = target: Serine/threonine-protein kinase Nek5 (Homo sapiens) (UniProt Q6P3R8); assay: Inhibition of NEK5 assessed as enzyme activity at 1 uM relative to untreated control; set-up: scale not given: the % may be the effect or the level left
Sequence of Serine/threonine-protein kinase Nek5 (Homo sapiens) (Q6P3R8 whole entry, the tested form may be a part): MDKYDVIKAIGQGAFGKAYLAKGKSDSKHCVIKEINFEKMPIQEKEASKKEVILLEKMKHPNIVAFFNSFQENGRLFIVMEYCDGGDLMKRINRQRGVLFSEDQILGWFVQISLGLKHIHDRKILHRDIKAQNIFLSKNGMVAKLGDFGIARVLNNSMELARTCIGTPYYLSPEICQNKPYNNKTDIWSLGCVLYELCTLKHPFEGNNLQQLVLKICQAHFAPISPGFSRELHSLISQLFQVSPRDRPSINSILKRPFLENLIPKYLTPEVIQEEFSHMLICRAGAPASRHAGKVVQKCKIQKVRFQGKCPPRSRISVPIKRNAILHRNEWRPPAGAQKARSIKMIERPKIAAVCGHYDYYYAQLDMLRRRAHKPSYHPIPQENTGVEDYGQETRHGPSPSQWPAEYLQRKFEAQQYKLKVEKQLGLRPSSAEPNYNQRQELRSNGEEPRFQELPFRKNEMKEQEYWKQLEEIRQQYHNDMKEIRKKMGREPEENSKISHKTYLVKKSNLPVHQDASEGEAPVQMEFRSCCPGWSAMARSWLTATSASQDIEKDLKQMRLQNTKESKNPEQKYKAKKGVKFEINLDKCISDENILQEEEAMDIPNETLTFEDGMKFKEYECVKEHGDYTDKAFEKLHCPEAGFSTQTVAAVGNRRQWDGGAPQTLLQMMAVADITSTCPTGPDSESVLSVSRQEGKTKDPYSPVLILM

[8] = target: Tyrosine-protein kinase JAK2 (Homo sapiens) (UniProt O60674); assay: Inhibition of JAK2 kinase domain 2 assessed as enzyme activity at 1 uM relative to untreated control; set-up: scale not given: the % may be the effect or the level left
[9] = target: Mitogen-activated protein kinase kinase kinase 4 (Homo sapiens) (UniProt Q9Y6R4); assay: Inhibition of MAP3K4 assessed as enzyme activity at 1 uM relative to untreated control; set-up: scale not given: the % may be the effect or the level left
[10] = target: Bone morphogenetic protein receptor type-1A (Homo sapiens) (UniProt P36894); assay: Inhibition of BMPR1A assessed as enzyme activity at 1 uM relative to untreated control; set-up: scale not given: the % may be the effect or the level left
[11] = target: Calcium/calmodulin-dependent protein kinase type 1D (Homo sapiens) (UniProt Q8IU85); assay: Inhibition of CAMK1D assessed as enzyme activity at 1 uM relative to untreated control; set-up: scale not given: the % may be the effect or the level left
[12] = target: Calcium/calmodulin-dependent protein kinase type II subunit beta (Homo sapiens) (UniProt Q13554); assay: Inhibition of CAMK2B assessed as enzyme activity at 1 uM relative to untreated control; set-up: scale not given: the % may be the effect or the level left
Sequence of Calcium/calmodulin-dependent protein kinase type II subunit beta (Homo sapiens) (Q13554 whole entry): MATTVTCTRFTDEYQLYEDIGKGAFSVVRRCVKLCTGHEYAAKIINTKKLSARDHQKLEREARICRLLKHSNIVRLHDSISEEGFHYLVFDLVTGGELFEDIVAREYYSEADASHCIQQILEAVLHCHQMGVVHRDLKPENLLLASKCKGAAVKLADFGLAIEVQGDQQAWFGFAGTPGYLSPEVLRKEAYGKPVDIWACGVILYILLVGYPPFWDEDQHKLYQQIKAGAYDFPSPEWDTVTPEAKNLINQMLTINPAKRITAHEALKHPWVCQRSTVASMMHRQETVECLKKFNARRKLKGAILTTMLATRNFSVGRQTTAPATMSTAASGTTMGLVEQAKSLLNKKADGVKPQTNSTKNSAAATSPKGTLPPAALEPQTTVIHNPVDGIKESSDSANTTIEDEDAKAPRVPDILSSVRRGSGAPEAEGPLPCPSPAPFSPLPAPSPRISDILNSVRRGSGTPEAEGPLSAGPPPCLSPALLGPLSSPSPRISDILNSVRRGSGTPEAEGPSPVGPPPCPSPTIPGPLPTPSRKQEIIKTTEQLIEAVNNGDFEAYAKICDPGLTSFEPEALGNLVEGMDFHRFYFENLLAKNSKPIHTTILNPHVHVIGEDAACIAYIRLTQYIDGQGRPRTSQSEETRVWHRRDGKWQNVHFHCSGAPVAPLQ

[13] = target: Serine/threonine-protein kinase Chk1 (Homo sapiens) (UniProt O14757); assay: Inhibition of CHEK1 assessed as enzyme activity at 1 uM relative to untreated control; set-up: scale not given: the % may be the effect or the level left
[14] = target: Dual specificity protein kinase CLK4 (Homo sapiens) (UniProt Q9HAZ1); assay: Inhibition of CLK4 assessed as enzyme activity at 1 uM relative to untreated control; set-up: scale not given: the % may be the effect or the level left
[15] = target: Protein-tyrosine kinase 2-beta (Homo sapiens) (UniProt Q14289); assay: Inhibition of PTK2B assessed as enzyme activity at 1 uM relative to untreated control; set-up: scale not given: the % may be the effect or the level left
[16] = target: Ribosomal protein S6 kinase alpha-4 (Homo sapiens) (UniProt O75676); assay: Inhibition of RPS6KA4 kinase domain 1 assessed as enzyme activity at 1 uM relative to untreated control; set-up: scale not given: the % may be the effect or the level left
[17] = target: Serine/threonine-protein kinase SIK1 (Homo sapiens) (UniProt P57059); assay: Inhibition of SNF1LK assessed as enzyme activity at 1 uM relative to untreated control; set-up: scale not given: the % may be the effect or the level left
[18] = target: Receptor tyrosine-protein kinase erbB-2 (Homo sapiens) (UniProt P04626); assay: Inhibition of ERBB2 assessed as enzyme activity at 1 uM relative to untreated control; set-up: scale not given: the % may be the effect or the level left
[19] = target: Mitogen-activated protein kinase 15 (Homo sapiens) (UniProt Q8TD08); assay: Inhibition of ERK8 assessed as enzyme activity at 1 uM relative to untreated control; set-up: scale not given: the % may be the effect or the level left
Sequence of Mitogen-activated protein kinase 15 (Homo sapiens) (Q8TD08 whole entry): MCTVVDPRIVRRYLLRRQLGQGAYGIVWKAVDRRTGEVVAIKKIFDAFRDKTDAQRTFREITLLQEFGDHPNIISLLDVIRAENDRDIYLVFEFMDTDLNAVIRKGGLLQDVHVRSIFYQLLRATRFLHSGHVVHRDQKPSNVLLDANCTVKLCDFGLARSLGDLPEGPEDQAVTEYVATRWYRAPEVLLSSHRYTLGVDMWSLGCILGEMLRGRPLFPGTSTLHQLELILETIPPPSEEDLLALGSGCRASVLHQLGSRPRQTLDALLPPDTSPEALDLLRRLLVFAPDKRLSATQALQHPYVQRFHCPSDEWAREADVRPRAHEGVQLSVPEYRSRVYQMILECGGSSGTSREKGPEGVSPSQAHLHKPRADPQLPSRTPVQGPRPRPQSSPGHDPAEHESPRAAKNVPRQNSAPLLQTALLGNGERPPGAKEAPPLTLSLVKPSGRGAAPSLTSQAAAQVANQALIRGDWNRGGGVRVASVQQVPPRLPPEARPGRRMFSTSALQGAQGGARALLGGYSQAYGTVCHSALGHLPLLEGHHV

[20] = target: Fibroblast growth factor receptor 3 (Homo sapiens) (UniProt P22607); assay: Inhibition of FGFR3 assessed as enzyme activity at 1 uM relative to untreated control; set-up: scale not given: the % may be the effect or the level left
[21] = target: Vascular endothelial growth factor receptor 1 (Homo sapiens) (UniProt P17948); assay: Inhibition of FLT1 assessed as enzyme activity at 1 uM relative to untreated control; set-up: scale not given: the % may be the effect or the level left
[22] = target: Inhibitor of nuclear factor kappa-B kinase subunit epsilon (Homo sapiens) (UniProt Q14164); assay: Inhibition of IKK-epsilon assessed as enzyme activity at 1 uM relative to untreated control; set-up: scale not given: the % may be the effect or the level left
[23] = target: Epidermal growth factor receptor (Homo sapiens) (UniProt P00533); assay: Inhibition of EGFR assessed as enzyme activity at 1 uM relative to untreated control; set-up: scale not given: the % may be the effect or the level left
[24] = target: Epidermal growth factor receptor (Homo sapiens) (UniProt P04626+P00533+Q15303+P21860); assay: Inhibition of EGFR E746-A750del mutant assessed as enzyme activity at 1 uM relative to untreated control; type: protein assay; set-up: scale not given: the % may be the effect or the level left
[25] = tested on: Epidermal growth factor receptor (Homo sapiens), P00533 [G719C]; assay: Inhibition of EGFR G719C mutant assessed as enzyme activity at 1 uM relative to untreated control; type: protein assay; set-up: scale not given: the % may be the effect or the level left
[26] = target: SRSF protein kinase 3 (Homo sapiens) (UniProt Q9UPE1); assay: Inhibition of SRPK3 assessed as enzyme activity at 1 uM relative to untreated control; set-up: scale not given: the % may be the effect or the level left
Sequence of SRSF protein kinase 3 (Homo sapiens) (Q9UPE1 whole entry): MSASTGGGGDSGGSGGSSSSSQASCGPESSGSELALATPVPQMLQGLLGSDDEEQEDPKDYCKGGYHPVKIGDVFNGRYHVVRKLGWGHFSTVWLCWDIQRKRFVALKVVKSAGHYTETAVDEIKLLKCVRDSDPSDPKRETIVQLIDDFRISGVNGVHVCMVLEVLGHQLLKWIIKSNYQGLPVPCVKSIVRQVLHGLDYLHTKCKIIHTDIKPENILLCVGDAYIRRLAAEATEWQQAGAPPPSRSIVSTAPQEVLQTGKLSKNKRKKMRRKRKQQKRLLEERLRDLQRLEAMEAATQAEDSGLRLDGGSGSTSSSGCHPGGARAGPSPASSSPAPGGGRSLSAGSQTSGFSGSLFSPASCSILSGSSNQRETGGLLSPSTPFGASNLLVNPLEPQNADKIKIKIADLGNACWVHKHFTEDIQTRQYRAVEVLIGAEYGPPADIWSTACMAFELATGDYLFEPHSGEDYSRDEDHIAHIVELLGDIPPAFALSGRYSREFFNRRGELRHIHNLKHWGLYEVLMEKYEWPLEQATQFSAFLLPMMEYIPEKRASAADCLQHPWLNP

[27] = target: Serine/threonine-protein kinase 16 (Homo sapiens) (UniProt O75716); assay: Inhibition of STK16 assessed as enzyme activity at 1 uM relative to untreated control; set-up: scale not given: the % may be the effect or the level left
[28] = target: 5'-AMP-activated protein kinase catalytic subunit alpha-1 (Homo sapiens) (UniProt Q13131); assay: Inhibition of AMPKalpha1 assessed as enzyme activity at 1 uM relative to untreated control; set-up: scale not given: the % may be the effect or the level left
[29] = target: 3-phosphoinositide-dependent protein kinase 1 (Homo sapiens) (UniProt O15530); assay: Inhibition of PDPK1 assessed as enzyme activity at 1 uM relative to untreated control; set-up: scale not given: the % may be the effect or the level left
[30] = target: Cyclin-dependent kinase 14 (Homo sapiens) (UniProt O94921); assay: Inhibition of PFTK1 assessed as enzyme activity at 1 uM relative to untreated control; set-up: scale not given: the % may be the effect or the level left
Sequence of Cyclin-dependent kinase 14 (Homo sapiens) (O94921 whole entry, canonical isoform): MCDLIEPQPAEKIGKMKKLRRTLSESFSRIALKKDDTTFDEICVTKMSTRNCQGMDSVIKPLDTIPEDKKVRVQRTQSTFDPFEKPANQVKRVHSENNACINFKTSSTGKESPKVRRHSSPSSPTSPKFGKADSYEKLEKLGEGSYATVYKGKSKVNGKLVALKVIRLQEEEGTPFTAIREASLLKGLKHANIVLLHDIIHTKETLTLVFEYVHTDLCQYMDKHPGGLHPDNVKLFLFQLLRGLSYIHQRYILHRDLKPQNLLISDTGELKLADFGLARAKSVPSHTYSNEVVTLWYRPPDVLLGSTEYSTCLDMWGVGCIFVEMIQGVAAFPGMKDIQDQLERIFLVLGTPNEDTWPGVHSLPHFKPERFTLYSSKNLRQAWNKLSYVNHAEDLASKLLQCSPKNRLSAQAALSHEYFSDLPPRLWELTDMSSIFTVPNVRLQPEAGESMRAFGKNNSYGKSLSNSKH

[31] = target: Phosphorylase b kinase gamma catalytic chain, skeletal muscle/heart isoform (Homo sapiens) (UniProt Q16816); assay: Inhibition of PHKG1 assessed as enzyme activity at 1 uM relative to untreated control; set-up: scale not given: the % may be the effect or the level left
[32] = target: Protein kinase C epsilon type (Homo sapiens) (UniProt Q02156); assay: Inhibition of PRKCE assessed as enzyme activity at 1 uM relative to untreated control; set-up: scale not given: the % may be the effect or the level left
[33] = target: Protein kinase C theta type (Homo sapiens) (UniProt Q04759); assay: Inhibition of PRKCQ assessed as enzyme activity at 1 uM relative to untreated control; set-up: scale not given: the % may be the effect or the level left
Sequence of Protein kinase C theta type (Homo sapiens) (Q04759 whole entry, looked up): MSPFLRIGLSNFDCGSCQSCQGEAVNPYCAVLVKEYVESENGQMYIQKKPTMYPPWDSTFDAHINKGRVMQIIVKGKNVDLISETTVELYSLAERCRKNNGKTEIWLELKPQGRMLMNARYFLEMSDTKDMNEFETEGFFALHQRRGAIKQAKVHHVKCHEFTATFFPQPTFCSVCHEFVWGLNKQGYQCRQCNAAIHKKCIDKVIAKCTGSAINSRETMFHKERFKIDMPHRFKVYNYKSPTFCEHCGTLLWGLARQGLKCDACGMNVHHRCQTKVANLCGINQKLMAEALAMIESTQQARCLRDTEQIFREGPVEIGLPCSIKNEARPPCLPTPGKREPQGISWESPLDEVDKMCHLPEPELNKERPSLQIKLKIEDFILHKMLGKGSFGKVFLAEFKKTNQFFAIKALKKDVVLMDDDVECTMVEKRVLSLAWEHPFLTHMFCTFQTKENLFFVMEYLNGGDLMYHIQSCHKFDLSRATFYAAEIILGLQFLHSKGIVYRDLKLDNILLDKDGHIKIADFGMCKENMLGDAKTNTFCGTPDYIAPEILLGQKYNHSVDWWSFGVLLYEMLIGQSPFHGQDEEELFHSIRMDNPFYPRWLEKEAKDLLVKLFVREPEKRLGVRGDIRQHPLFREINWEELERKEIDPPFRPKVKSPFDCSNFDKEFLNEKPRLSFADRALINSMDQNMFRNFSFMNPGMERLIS

[34] = target: Tyrosine-protein kinase SYK (Homo sapiens) (UniProt P43405); assay: Inhibition of SYK assessed as enzyme activity at 1 uM relative to untreated control; set-up: scale not given: the % may be the effect or the level left
[35] = target: TGF-beta receptor type-2 (Homo sapiens) (UniProt P37173); assay: Inhibition of TGFBR2 assessed as enzyme activity at 1 uM relative to untreated control; set-up: scale not given: the % may be the effect or the level left
[36] = target: Non-receptor tyrosine-protein kinase TYK2 (Homo sapiens) (UniProt P29597); assay: Inhibition of TYK2 kinase domain 1 assessed as enzyme activity at 1 uM relative to untreated control; set-up: scale not given: the % may be the effect or the level left
[37] = target: Serine/threonine-protein kinase ULK2 (Homo sapiens) (UniProt Q8IYT8); assay: Inhibition of ULK2 assessed as enzyme activity at 1 uM relative to untreated control; set-up: scale not given: the % may be the effect or the level left
[38] = target: Serine/threonine-protein kinase 25 (Homo sapiens) (UniProt O00506); assay: Inhibition of YSK1 assessed as enzyme activity at 1 uM relative to untreated control; set-up: scale not given: the % may be the effect or the level left
Sequence of Serine/threonine-protein kinase 25 (Homo sapiens) (O00506 whole entry, looked up): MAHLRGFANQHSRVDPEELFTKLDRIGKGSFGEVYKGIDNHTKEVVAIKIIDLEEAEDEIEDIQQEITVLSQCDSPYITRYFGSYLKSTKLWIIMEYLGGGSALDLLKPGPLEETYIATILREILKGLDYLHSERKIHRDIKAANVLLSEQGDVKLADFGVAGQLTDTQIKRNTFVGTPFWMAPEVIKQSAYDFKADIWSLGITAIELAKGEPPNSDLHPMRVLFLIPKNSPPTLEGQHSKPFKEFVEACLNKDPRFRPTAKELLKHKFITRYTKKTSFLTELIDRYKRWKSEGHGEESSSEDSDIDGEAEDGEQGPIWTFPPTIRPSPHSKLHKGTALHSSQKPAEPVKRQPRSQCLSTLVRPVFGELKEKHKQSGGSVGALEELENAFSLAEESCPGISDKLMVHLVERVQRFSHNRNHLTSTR

Structure (SMILES): Cc1ccc2c(Nc3ccc(Cl)cc3)nccc2c1Nc1ncccc1-c1ncnc2[nH]cnc12.Cl.Cl.Cl
- Vd [1]: 1.1 L/kg
- Vd [2]: 1.9 L/kg
- bioavailability [3]: 80%
- Activity [4]: 96%
- Activity [5]: 100%
- Activity [6]: 99%
- Activity [7]: 98%
- Activity [8]: 3.9%
- Activity [9]: 100%
- Activity [10]: 100%
- Activity [11]: 100%
- Activity [12]: 100%
- Activity [13]: 100%
- Activity [14]: 100%
- Activity [15]: 40%
- Activity [16]: 100%
- Activity [17]: 75%
- Activity [18]: 97%
- Activity [19]: 98%
- Activity [20]: 100%
- Activity [21]: 2.2%
- Activity [22]: 73%
- Activity [23]: 100%
- Activity [24]: 86%
- Activity [25]: 92%
- Activity [26]: 100%
- Activity [27]: 100%
- Activity [28]: 89%
- Activity [29]: 100%
- Activity [30]: 100%
- Activity [31]: 99%
- Activity [32]: 100%
- Activity [33]: 100%
- Activity [34]: 86%
- Activity [35]: 100%
- Activity [36]: 96%
- Activity [37]: 100%
- Activity [38]: 100%
